Laboratory results reported in US8268999B2, “Tri-cyclic pyrazolopyridine kinase inhibitors” (Vertex Pharmaceuticals Incorporated, priority 2009, dated 2012).
Several values for one entry are separate records, joined by “and”; a condition that tells them apart may be missing. Equal entries are not always repeated.

Tests used:
PI3Kα = PI3Kα (Homo sapiens, UniProt P42336); test: PI3K Inhibition Assay (33P-ATP, PI(4,5)P2 substrate), PI3Kα; type: biochemical; settings: 2 nM final enzyme, 3 μM ATP, 30 μM PI(4,5)P2, 30 min at 25° C.; competitive tight binding Ki fit
Procedure: (§1) Using a Biomek FX from Beckman Coulter, 1.5 μL of each of ten 2.5-fold serial dilutions of a compound of the invention in 100% DMSO was added to an individual well (hereafter, “test well”) in a 96 well polystyrene plate [Corning, Costar Item No. 3697]. One test well also contained 1.5 μL of DMSO with no compound. […] Using a Titertek Multidrop, 50 μL of Reaction Mix [100 mM HEPES pH 7.5, 50 mM NaCl, 10 mM DTT, 0.2 mg/mL BSA, 60 μM phosphatidylinositol(4,5)-bisphosphate diC16 (PI(4,5)P2; Avanti Polar Lipids, Cat. No. 840046P) and PI3K isoform of interest (see Table 3 for isoform concentrations)] was added to each well. To initiate the reaction, 50 μL of ATP Mix [20 mM MgCl2, 6 μM ATP (100 μCi/μmole ^33P-ATP)] was added each well, followed by incubating the wells for 30 min. at 25° C. Final concentrations in each well were 50 mM HEPES 7.5, 10 mM MgCl2, 25 mM NaCl, 5 mM DTT, 0.1 mg/mL BSA, 30 μM PI(4,5)P2, 3 μM ATP, and the PI3K isoform of interest (see Table 3). Final compound concentrations in each well ranged from 10 μM to 1 nM.
(§2) After incubation, the reactions in each well were quenched by addition of 50 μL of stop solution [30% TCA/Water, 10 mM ATP]. […] 50 μL of scintillation fluid was added to each well and the plate read on a Perkin-Elmer TopCount™ NXT liquid scintillation counter to obtain ^33P-counts representing inhibition values. […]

PI3Kγ = PI3Kγ (Homo sapiens, UniProt P48736); test: PI3K Inhibition Assay (33P-ATP, PI(4,5)P2 substrate), PI3Kγ; type: biochemical; settings: 2 nM final enzyme, 3 μM ATP, 30 μM PI(4,5)P2, 30 min at 25° C.; competitive tight binding Ki fit
Procedure: as §1, §2

Chain of PI3Kγ (P48736 whole entry, species assumed): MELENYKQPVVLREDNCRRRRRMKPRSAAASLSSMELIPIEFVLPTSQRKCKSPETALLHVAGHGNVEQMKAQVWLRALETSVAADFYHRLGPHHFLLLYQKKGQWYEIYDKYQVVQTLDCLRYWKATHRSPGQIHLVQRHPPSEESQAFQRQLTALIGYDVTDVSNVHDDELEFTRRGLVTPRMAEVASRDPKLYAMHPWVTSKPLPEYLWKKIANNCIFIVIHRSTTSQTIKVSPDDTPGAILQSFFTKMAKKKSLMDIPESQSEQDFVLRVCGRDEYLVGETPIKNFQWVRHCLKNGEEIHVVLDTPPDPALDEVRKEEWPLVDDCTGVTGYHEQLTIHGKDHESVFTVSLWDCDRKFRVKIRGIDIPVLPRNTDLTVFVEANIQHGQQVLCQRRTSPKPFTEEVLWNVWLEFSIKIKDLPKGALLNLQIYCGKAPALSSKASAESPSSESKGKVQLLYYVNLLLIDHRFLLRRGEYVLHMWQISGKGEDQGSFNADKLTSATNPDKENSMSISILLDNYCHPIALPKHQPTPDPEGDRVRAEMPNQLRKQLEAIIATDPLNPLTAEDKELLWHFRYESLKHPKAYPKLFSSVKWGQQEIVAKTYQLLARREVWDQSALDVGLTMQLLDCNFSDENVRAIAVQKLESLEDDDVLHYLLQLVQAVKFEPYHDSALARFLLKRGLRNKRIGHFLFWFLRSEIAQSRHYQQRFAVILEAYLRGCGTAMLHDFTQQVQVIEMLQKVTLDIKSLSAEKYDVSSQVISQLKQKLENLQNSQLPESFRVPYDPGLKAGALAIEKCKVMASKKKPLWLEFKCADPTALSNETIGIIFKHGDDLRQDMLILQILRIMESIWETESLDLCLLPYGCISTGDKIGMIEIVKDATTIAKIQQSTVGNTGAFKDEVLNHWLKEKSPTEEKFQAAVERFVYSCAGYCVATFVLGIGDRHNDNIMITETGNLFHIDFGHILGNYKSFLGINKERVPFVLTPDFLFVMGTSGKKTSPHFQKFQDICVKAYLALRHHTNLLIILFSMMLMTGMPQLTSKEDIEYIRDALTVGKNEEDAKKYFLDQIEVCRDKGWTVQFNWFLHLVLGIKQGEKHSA
Chain of PI3Kα (P42336 whole entry, species assumed, canonical isoform): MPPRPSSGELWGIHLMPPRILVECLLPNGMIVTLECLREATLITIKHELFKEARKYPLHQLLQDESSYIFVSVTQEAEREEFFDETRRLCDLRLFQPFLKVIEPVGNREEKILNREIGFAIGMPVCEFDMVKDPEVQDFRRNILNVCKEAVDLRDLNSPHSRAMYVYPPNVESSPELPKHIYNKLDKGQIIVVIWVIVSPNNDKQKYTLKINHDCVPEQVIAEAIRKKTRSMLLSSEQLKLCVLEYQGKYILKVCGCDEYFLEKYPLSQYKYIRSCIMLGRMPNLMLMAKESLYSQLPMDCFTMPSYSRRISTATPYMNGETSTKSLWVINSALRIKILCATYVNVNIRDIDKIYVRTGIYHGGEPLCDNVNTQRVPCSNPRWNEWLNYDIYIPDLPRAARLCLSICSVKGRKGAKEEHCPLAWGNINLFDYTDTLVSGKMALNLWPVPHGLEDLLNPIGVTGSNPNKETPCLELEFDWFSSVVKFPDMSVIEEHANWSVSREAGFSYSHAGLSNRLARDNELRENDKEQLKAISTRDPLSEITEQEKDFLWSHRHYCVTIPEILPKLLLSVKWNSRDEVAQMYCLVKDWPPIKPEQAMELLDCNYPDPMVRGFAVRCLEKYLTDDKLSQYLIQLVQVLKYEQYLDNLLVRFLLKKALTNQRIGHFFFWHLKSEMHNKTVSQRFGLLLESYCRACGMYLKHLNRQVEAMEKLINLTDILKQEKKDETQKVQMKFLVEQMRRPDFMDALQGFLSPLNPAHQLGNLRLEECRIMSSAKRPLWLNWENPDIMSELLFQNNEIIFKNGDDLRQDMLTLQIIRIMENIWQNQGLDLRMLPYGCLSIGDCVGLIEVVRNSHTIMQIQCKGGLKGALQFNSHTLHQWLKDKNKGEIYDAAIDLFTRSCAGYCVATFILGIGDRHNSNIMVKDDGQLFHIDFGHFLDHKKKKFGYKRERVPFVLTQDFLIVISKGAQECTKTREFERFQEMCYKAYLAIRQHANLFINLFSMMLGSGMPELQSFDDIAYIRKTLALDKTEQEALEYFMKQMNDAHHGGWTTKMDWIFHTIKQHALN
Chain of PI3Kα (P27986 whole entry partner, species assumed, canonical isoform): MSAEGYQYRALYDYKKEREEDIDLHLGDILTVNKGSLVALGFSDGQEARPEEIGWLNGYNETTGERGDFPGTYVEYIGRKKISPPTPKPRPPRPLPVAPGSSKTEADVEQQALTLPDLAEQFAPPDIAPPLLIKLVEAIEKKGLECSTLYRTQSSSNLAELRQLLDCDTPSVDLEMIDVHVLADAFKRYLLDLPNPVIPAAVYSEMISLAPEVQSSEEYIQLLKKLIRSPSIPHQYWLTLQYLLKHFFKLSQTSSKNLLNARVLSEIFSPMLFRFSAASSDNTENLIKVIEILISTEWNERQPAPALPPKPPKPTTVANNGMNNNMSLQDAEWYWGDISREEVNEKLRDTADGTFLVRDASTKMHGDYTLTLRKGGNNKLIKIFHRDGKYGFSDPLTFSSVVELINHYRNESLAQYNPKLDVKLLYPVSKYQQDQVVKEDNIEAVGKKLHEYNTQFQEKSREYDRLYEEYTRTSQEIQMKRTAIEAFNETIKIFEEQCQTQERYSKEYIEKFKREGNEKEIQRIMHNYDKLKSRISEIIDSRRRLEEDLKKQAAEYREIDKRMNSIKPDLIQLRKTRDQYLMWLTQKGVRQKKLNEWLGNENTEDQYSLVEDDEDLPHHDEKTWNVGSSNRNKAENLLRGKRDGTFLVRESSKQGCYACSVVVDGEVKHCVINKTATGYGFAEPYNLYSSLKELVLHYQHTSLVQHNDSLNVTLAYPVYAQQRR

Ki (PI3Kα) | Ki (PI3Kγ) | Structure (SMILES)
2 nM and < 100 nM | – | COc1cc(-c2ccc3nc(Nc4cnccn4)sc3n2)cnc1OC [Compound 37]
– | 3 nM and < 100 nM | CCN(CC)C(=O)c1cccc(Nc2nc3ccc(-c4cncc(OC)c4)cc3s2)n1 [Compound 110]
